Results as given in paper PMC7993727, “Discovery of a novel AR/HDAC6 dual inhibitor for prostate cancer treatment” (Aging (Albany NY), 2021).

What was measured:
[1] = target: T1, AR (Homo sapiens, UniProt P10275); assay: cell-based; assay type: cell-based; settings: VCaP cells
T1 construct: The VCaP cells were transfected with MMTV-LUC for 24 hours; endogenous in cells; host or cells: VCaP
T1 sequence (P10275 1-920): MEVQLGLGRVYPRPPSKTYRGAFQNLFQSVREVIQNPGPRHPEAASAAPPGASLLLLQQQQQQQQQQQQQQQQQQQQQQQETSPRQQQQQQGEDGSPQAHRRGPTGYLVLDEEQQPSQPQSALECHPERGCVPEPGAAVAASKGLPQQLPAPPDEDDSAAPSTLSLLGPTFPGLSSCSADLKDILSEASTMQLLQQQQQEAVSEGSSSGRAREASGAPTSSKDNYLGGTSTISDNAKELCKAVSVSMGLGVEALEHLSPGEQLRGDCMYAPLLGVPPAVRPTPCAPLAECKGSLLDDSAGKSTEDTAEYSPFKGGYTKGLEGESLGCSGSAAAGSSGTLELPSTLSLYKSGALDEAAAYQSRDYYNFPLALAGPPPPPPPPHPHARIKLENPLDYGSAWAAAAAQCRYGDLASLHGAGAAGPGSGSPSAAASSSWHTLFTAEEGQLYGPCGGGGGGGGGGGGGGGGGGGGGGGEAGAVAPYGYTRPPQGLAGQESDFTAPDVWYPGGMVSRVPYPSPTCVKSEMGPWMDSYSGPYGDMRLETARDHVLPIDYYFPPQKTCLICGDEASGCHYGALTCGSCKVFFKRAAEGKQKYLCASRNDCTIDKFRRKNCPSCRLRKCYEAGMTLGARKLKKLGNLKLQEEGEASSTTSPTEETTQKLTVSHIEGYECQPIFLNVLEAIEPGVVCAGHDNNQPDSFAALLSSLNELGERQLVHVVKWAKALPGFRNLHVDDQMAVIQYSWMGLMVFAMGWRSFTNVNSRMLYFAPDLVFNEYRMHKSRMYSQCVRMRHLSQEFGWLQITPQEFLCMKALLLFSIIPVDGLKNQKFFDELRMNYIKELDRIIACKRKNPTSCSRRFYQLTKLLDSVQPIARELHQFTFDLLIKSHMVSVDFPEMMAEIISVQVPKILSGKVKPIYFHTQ
Method: To evaluate the AR inhibition activities of Zeta55, an AR luciferase activity assay was performed (Table 1 and Supplementary Figure 1). […] To evaluate the HDAC inhibition activities of Zeta55, fluorescent-based HDAC assays were performed (Table 1 and Supplementary Figure 3).

[2] = tested on: DU145 cells; assay: cell proliferation assay; assay type: cell-based; settings: Homo sapiens, DU-145, 72 h, read-out: IC50 values proliferation DU145
[3] = tested on: VCaP xenograft tumors; assay: castration-resistant VCaP xenograft mouse model; assay type: in vivo, NOD-SCID mice
Description: Figure 4 Zeta55 inhibits tumor growth in a CRPC xenograft model. (A) Percentage change in individual tumor volume of NOD-SCID mice with subcutaneous tumor xenograft grown from VCaP cells. NOD-SCID mice were castrated when the tumor volumes reached about 250mm^3 on 63 days after subcutaneous injection of VCaP cells. […]. Tumor sizes were monitored twice a week after treatment. (B) Mean tumor volumes (mm^3, +SEM) of NOD-SCID mice after treatment. (C) Mean body weight (g, +SEM) of NOD-SCID mice after treatment. *, P < 0.01 vs. vehicle.
The animal protocols used in this study were evaluated and approved by the Xiangya Hospital Medical ethics committee of Central South University. NOD-SCID mice were purchased from Hunan SJA Laboratory Animal Co. Ltd. with a quality license and raised in the SPF Laboratory Animal Room of the Department of Laboratory Zoology at Central South University. Briefly, VCaP cells were suspended in DMEM and Matrigel (BD) (1:1), and 5×10^6 cells/100 μl were subcutaneously injected into a 7-week-old male NOD-SCID mouse. […]. VCaP xenografts were measured twice per week in two dimensions (L and W) by a Vernier caliper, and the tumor volume was calculated as W^2×L/2 (mm^3).
Formalin-fixed, paraffin-embedded xenograft tissue sections were used for immunohistochemistry. TUNEL staining was performed according to the instructions in the TUNEL kit (KeyGEN). Tissue sections were deparaffinized and then boiled in 0.01 mol/L sodium citrate buffer (pH 6.0) in a kilowatt microwave oven for 10 minutes to retrieve cell antigens. Ki67 (Abcam, ab15580) or AR (SANTA, sc-7305) was used as the primary antibody. All tissue sections were immunohistochemically stained using the avidin-biotin-peroxidase method and were counterstained with hematoxylin. The staining intensities were evaluated at 100× magnification.

For `N#Cc1ccc(N2C(=O)C3(CCC3)N(c3ccc(C(=O)NO)c(F)c3)C2=S)cc1C(F)(F)F` [Zeta55], which IC50 ([1]; AR luciferase activity assay, MMTV-LUC, with 10 nM DHT) is on record?
The IC50 was 0.63 µM.

What about the “AR antagonist activity, AR-mediated expression of reporter gene” value ([1]; in the presence of DHT) of the same compound?
The value was “potently inhibited”.

What about the “AR agonist activity, expression of reporter gene” value ([1]; without DHT, 10 μM) of the same compound?
The value was “did not induce the expression of reporter gene”.

And the IC50 [2]?
The IC50 was 45.7 µM.

And the antitumor activity ([3]; 30 mg/kg/d oral, 49 days, compared with MDV3100 30 mg/kg/d)?
The antitumor activity was “slightly better antitumor activity than MDV3100”.

What about the “tumors with tumor regression” value ([3]; 60 mg/kg/d oral, 49 days, n=6, castrated NOD-SCID mice) of the same compound?
Its value is 5 of 6.

What about the “weights of mice during treatment” value ([3]; 30 and 60 mg/kg daily oral) of the same compound?
The value was “did not decrease significantly”.

What about the “expression of AR and PSA in treated tumors” value ([3]; immunohistochemical and Western blot analysis, compared to MDV3100 and vehicle) of the same compound?
Its value is “decreased expression of AR and PSA”.

And the “Ki-67 staining of tumor xenografts” value ([3]; mouse, in vivo)?
The value was “inhibited tumor cell proliferation”.

What about the “TUNEL staining of tumor xenografts” value ([3]; mouse, in vivo) of the same compound?
Its value is “induced apoptosis”.
